The results in this text go back to PubChem BioAssay (NCI).

As usually defined, the TGI is the concentration giving total growth inhibition. Low values mean greater sensitivity of the cells, high ones lower sensitivity of the cells.

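Results reflect a 48-hour exposure of cells in 96-well plates to compound at five concentrations. Definition used: TGI = concentration required for complete inhibition of growth.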

What all share (test): DTP human tumour cell line panel, 48 h
Assay [1] concerns TK-10 renal.
The test system of assay [2] is MDA-MB-435.
For assay [3], the system named is HOP-62 NSCLC.
Assay [4] has as its system UACC-62 melanoma.
In assay [5] the test system is CCRF-CEM leukemia.
Assay [6] deals with HCT-116 colon.
Assay [7] relates to HCT-15 colon.
For assay [8], the system named is ACHN renal.
The test system of assay [9] is SW-620 colon.
For assay [10], the system named is LOX IMVI melanoma.
Assay [11] relates to A549 NSCLC.
The test system of assay [12] is UACC-257 melanoma.
Assay [13] concerns EKVX NSCLC.
Assay [14] concerns SR leukemia.
Assay [15] deals with SK-MEL-5 melanoma.
Assay [16] deals with MDA-N.
Assay [17] relates to MALME-3M melanoma.
For assay [18], the system named is RPMI-8226 leukemia.
Assay [19] relates to M14 melanoma.

With `C/C(=C\[Si](C)(C)c1ccco1)C(C)(O)[C@H](C)O` (stereo partly drawn), the concentration for total growth inhibition (TGI) in [1], in assay [2], in assay [3], in assay [4], in [5] and in [6] was greater than 100 µM each time. The total growth inhibition concentration (TGI) is greater than 100 µM in assay [7]; greater than 100 µM in assay [8]; greater than 100 µM in assay [9]; greater than 100 µM in assay [10]; greater than 100 µM in assay [11]; 96.3 µM in assay [12]. Besides, the TGI in assay [13], in assay [14], in [15], in [16], in assay [17] and in [18] was greater than 100 µM throughout. Also, the TGI in assay [19] is greater than 100 µM.

With `COc1ccc(COCC[C@H](C)OC2OC(CO[Si](C)(C)C(C)(C)C)C(O)C(O)C2O)cc1` (stereo partly drawn), the TGI in assay [1], in assay [2], in assay [3], in assay [4], in [5] and in assay [6] was greater than 100 µM each time. For the same compound, the TGI in assay [7], in [8], in assay [9], in assay [10], in assay [11] and in [12] was greater than 100 µM throughout. Moreover, the concentration for total growth inhibition (TGI) in assay [13], in assay [14], in assay [15], in [16], in assay [17] and in assay [18] was greater than 100 µM in each case. This compound also registered a TGI in assay [19] greater than 100 µM.

With `Cn1c2ncccc2n2c(=O)cc(O)cc12`, the TGI in assay [1], in assay [2], in assay [3], in assay [4], in [5] and in assay [6] was greater than 100 µM each time. The TGI in [7], in [8], in assay [9], in assay [10], in assay [11] and in assay [12] was greater than 100 µM throughout. Moreover, the total growth inhibition concentration (TGI) in assay [13], in [14], in assay [15], in assay [16], in assay [17] and in assay [18] was greater than 100 µM throughout. The TGI in assay [19] was greater than 100 µM.

Regarding `CNC(=O)O/N=C1\N(C)CN(c2ccccc2)C12CCN(CCCC(=O)c1ccc(F)cc1)CC2`, the TGI in assay [1], in assay [2], in assay [3], in assay [4], in assay [5] and in assay [6] was greater than 100 µM in each case. In addition, the concentration for total growth inhibition (TGI) in [7] was greater than 100 µM; in assay [8], greater than 100 µM; in assay [9], greater than 100 µM; in assay [10] it was greater than 100 µM; in [11], greater than 100 µM; in assay [12], 35.4 µM. For the same compound, the TGI in [13] was greater than 100 µM; in [14] it was greater than 100 µM; in assay [15], 33 µM; in assay [16], greater than 100 µM; in assay [17] it was 90.8 µM; in [18] it was greater than 100 µM. The compound also displayed a total growth inhibition concentration (TGI) in assay [19] of 32.9 µM.

Take `COc1ccc(C[C@H]2COC(=O)[C@@H]2Cc2ccc(Br)cc2)cc1OC`: the total growth inhibition concentration (TGI) in [1] is greater than 94.2 µM; in [2], 55.7 µM; in assay [3] it was greater than 100 µM; in [4], 96.8 µM; in [5], greater than 100 µM; in [6], greater than 89.7 µM. Further, the TGI in assay [7] was greater than 100 µM; in assay [8] it was greater than 100 µM; in assay [9], greater than 100 µM; in [10], 37.8 µM; in assay [11], greater than 100 µM; in assay [12] it was 74.6 µM. In addition, the TGI was 56.5 µM in assay [13]; greater than 94 µM in [14]; 17.2 µM in assay [15]; greater than 100 µM in assay [16]; greater than 89.5 µM in assay [17]; greater than 100 µM in assay [18]. Moreover, in assay [19], the total growth inhibition concentration (TGI) was greater than 89.5 µM.

In the case of `N#CCCC1(CCC#N)S(=O)(=O)OCCOS1(=O)=O`, the total growth inhibition concentration (TGI) in [1], in assay [2], in [3], in assay [4], in [5] and in assay [6] was greater than 100 µM in each case. Besides, the TGI in assay [7], in [8], in [9], in assay [10], in assay [11] and in assay [12] was greater than 100 µM throughout. For the same compound, the concentration for total growth inhibition (TGI) in assay [13], in [14], in [15], in [16], in assay [17] and in assay [18] was greater than 100 µM each time. In assay [19], this compound yielded a TGI greater than 100 µM.

As to `CCOC(=O)c1c2ccccc2n2c(=O)n(-c3ccc(OC)cc3)nnc12`, the concentration for total growth inhibition (TGI) was greater than 84.5 µM in assay [1]; greater than 100 µM in assay [2]; 63 µM in assay [3]; 99.6 µM in assay [4]; greater than 62.4 µM in [5]; greater than 100 µM in assay [6]. For the same compound, the concentration for total growth inhibition (TGI) in assay [7], in assay [8], in assay [9], in assay [10], in assay [11] and in assay [12] was greater than 100 µM in each case. The concentration for total growth inhibition (TGI) in [13] was greater than 100 µM; in assay [14], greater than 100 µM; in assay [15], greater than 100 µM; in assay [16] it was greater than 100 µM; in [17], greater than 100 µM; in assay [18] it was greater than 91.1 µM. The concentration for total growth inhibition (TGI) in assay [19] was greater than 100 µM.
